Data published in patent publication US20100041612A1, “Fragments of the Glucagon-Like Peptide-1 and Uses Thereof” (priority 2005, published 2010).
Square brackets hold non-standard residues; d marks the D form. Peptide text beside a SMILES is read from it. Bip = N[C@@H](Cc1ccc(-c2ccccc2)cc1)C(=O)O

Assays:
[1] = tested on: Zucker diabetic fatty (ZDF) rats; experiment: Preclinical trial protocol in Zucker diabetic fatty (ZDF) rats: blood glucose and islet cell mass; format: in vivo, rat; settings: versus saline; for blood glucose levels: 1 μg/kg/day to 100 mg/kg/day; for islet cell mass in pancreases: histology
Description: In this example, qualified animal models for diabetes are employed to examine the dose ranges of GLP-1 (7-20).
Treatment with GLP-1 (7-20) Animal Model. Zucker diabetic fatty (ZDF) rats are a well characterized type 2 diabetes animal model. (Suh Y H, et al. J Mol. Endocrinol. 2005 April; 34(2):299-315.)
Doses of GLP-1 (7-20) range from 1 μg/kg/day to 100 mg/kg/day.
Treatment. Cohorts are treated in 2 arms with 2-4 dose ranges of GLP-1 (7-20) amide and a placebo, at a compensated dose for animal size, metabolism and circulation. Arm 1: saline, Arm 2: GLP-1 (7-20) amide.
Study Assessment. Blood glucose levels are measured every week with a One Touch II glucose meter (Lifescan). Blood insulin levels are also measured. Rats are considered diabetic after 2 consecutive blood glucose measurements over 300 mg/dl. For histological analysis, pancreases are snap-frozen. Multiple 5-μm sections are stained with hematoxylin and eosin and scored blindly for islet cell mass as known in the art. […]
Animal Model. Zucker diabetic fatty (ZDF) rats are a well characterized type 2 diabetes animal model. (Suh Y H, et al. J Mol Endocrinol. 2005 April; 34(2):299-315.) […]
Treatment. Cohorts are treated in 6 arms with 2-4 dose ranges of each drug and a placebo, at a compensated dose for animal size, metabolism and circulation. Arm 1: saline, Arm 2: GLP-1 (7-20)−bpa; Arm 3: GLP-1 (7-20)+bpa; Arm 4: GLP-1 (7-20)−bpa plus pravastatin; Arm 5: GLP-1 (7-20)+bpa plus pravastatin; Arm 6: GLP-1 (7-20)−bpa plus GLP-1 (7-20)+bpa plus pravastatin.
Study Assessment. Blood glucose levels are measured every week with a One Touch II glucose meter (Lifescan). Blood insulin levels are also measured. Rats are considered diabetic after 2 consecutive measurements over 300 mg/dl. For histological analysis, pancreases are snap-frozen. Multiple 5-μm sections are stained with hematoxylin and eosin and scored blindly for islet cell mass as known in the art.

[2] = biological target: wild-type human GLP-1 receptor (Homo sapiens, UniProt P43220); experiment: Peptide induced cAMP production (radioimmunoassay) in COS-7 cells transfected with wild-type GLP-1 receptor
Description: COS-7 cells were transiently transfected with cDNA encoding the wild-type human GLP-1 receptor. Peptide induced cAMP production was measured by radioimmunoassay.

[3] = tested on: hyperactive human GLP-1 receptor variant; experiment: Peptide induced cAMP production (radioimmunoassay) in COS-7 cells transfected with hyperactive GLP-1 receptor variant; format: cell-based; settings: for EC50: COS-7 cells, hyperactive human GLP-1 receptor variant
From the text: The same peptides were used as described above, with the underivatized GLP-1 (7-20) amide represented in FIG. 1B with closed squares (“−bpa”) and the GLP-1 (7-20) carboxy-terminal tethered with a small molecule, biphenylalanine, represented by open squares (“+bpa”).

Chain of wild-type human GLP-1 receptor (P43220 24-463): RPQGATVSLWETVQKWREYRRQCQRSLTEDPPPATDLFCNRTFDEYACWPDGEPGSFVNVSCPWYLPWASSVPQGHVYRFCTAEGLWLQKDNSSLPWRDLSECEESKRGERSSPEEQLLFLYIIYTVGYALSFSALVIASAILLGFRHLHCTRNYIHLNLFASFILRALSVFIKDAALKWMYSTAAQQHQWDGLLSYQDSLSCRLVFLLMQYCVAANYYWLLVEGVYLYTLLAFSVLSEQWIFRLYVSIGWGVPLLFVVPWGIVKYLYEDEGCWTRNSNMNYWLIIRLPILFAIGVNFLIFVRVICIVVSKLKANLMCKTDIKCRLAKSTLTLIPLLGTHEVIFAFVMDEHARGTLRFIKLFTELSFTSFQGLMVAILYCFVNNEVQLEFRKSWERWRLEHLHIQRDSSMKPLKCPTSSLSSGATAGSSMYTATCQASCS

Row | affinity for the GLP-1 receptor compared with full length GLP-1 ([2]; statement referring to Example 1) | Structure (SMILES) | blood glucose levels [1] | islet cell mass in pancreases [1] | EC50 [3] | potency increase compared to the function of this peptide at the wild type receptor ([3]; hyperactive versus wild type receptor) | potency increase by carboxy-terminal tethering of biphenylalanine ([2]; versus underivatized GLP-1 (7-20) amide, wild-type receptor) | higher potency than GLP-1 (7-20) amide -bpa at the hyperactive receptor ([3]; hyperactive receptor, +bpa versus -bpa)
1 | lower affinity than full length GLP-1 | CC(C)C[C@H](NC(=O)[C@H](Cc1ccc(O)cc1)NC(=O)[C@H](CO)NC(=O)[C@H](CO)NC(=O)[C@@H](NC(=O)[C@H](CC(=O)O)NC(=O)[C@H](CO)NC(=O)[C@@H](NC(=O)[C@H](Cc1ccccc1)NC(=O)[C@@H](NC(=O)CNC(=O)[C@H](CCC(=O)O)NC(=O)[C@H](C)NC(=O)[C@@H](N)Cc1c[nH]cn1)[C@@H](C)O)[C@@H](C)O)C(C)C)C(N)=O [GLP-1 (7-20) amide] (H-HAEGTFTSDVSSYL-NH2; N-terminus assumed) | pronounced reduction | increased | 24 µM | 10 fold | – | –
2 | – | CC(C)C[C@H](NC(=O)[C@H](Cc1ccc(O)cc1)NC(=O)[C@H](CO)NC(=O)[C@H](CO)NC(=O)[C@@H](NC(=O)[C@H](CC(=O)O)NC(=O)[C@H](CO)NC(=O)[C@@H](NC(=O)[C@H](Cc1ccccc1)NC(=O)[C@@H](NC(=O)CNC(=O)[C@H](CCC(=O)O)NC(=O)[C@H](C)NC(=O)[C@@H](N)Cc1c[nH]cn1)[C@@H](C)O)[C@@H](C)O)C(C)C)C(=O)N[C@@H](Cc1ccc(-c2ccccc2)cc1)C(N)=O [GLP-1 (7-20)+bpa] (H-HAEGTFTSDVSSYL[Bip]-NH2; N-terminus and C-terminus assumed) | pronounced reduction | increased | 2 µM | – | 22 fold | 10 fold
